Laboratory results taken from patent publication US20260108527A1, “POLO LIKE KINASE 4 INHIBITORS” (ORIC Pharmaceuticals, Inc., priority 2022, published 2026).

Columns and labels:
human recombinant PLK4 = target: T1, human recombinant PLK4 (Homo sapiens, UniProt O00444); experiment: PLK4 Biochemical Assay (ADP-Glo); details: 0.5 nM PLK4, 8.0 μM ATP, 4.7 μM MBP, 6 hours at RT
T1 construct: purchased ThermoFisher PV6396
T1 sequence (O00444 1-970): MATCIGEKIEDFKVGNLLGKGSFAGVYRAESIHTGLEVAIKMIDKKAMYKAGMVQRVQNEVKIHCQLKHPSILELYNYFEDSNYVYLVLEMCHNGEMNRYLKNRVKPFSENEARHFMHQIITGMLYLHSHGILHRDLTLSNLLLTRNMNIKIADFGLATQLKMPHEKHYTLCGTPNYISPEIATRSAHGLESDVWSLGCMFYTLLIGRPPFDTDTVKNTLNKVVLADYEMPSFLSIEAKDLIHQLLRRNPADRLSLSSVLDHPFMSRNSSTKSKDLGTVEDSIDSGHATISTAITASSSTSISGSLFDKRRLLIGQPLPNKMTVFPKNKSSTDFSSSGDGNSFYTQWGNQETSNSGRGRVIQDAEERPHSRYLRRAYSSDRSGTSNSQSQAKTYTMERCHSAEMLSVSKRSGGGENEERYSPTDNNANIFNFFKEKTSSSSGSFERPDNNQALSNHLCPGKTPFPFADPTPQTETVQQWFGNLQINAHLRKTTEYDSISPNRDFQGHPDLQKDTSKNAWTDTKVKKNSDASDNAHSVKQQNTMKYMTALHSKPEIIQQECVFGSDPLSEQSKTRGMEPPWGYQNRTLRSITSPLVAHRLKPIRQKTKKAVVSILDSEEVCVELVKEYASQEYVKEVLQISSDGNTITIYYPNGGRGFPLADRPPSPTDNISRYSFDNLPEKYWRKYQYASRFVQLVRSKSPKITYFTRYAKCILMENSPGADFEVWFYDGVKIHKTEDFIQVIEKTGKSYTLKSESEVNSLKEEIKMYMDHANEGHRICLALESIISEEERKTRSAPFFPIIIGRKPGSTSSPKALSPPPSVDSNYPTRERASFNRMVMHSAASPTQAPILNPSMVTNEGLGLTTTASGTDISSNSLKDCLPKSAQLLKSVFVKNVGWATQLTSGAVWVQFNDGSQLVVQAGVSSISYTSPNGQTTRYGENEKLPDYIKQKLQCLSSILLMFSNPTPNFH
Procedure: Activity of human recombinant PLK4 (ThermoFisher, cat #PV6396) was measured by quantification of adenosine diphosphate (ADP) using the ADP-Glo Kinase Assay Kit (Promega, cat #V9102). […] 5 μL of 1.0 nM PLK4 protein in assay buffer (50 mM HEPES, pH 7.5, 0.01% Brij-35, 0.01% BSA, 10 mM MgCl2, 1 mM EGTA, 1 mM DTT) was added to the plates. Test compounds and PLK4 were incubated for 15 minutes at room temperature (RT). […] Reactions were stopped and the remaining ATP depleted by adding 10 μL of ADP-Glo reagent (Promega, cat #V912B) and incubating for 40 minutes at RT. The simultaneous conversion of the remaining ADP to ATP and measurement of the newly synthesized ATP was achieved by addition of 20 μL Kinase Detection reagent (Promega, cat #V914B), incubation for 30 min at RT, and luminescence detection using the EnVision plate reader (PerkinElmer). […] The IC50 values reported in Table 2 were determined using four parameter non-linear regression curve fit.

[1] = target: T2, human recombinant Aurora A (Homo sapiens, UniProt O14965); experiment: Aurora A Kinase Biochemical Assay (ADP-Glo); details: selectivity ratio; Aurora A 2.5 nM, 20 μM ATP
T2 construct: purchased ThermoFisher PR5935A
T2 sequence (O14965 1-403): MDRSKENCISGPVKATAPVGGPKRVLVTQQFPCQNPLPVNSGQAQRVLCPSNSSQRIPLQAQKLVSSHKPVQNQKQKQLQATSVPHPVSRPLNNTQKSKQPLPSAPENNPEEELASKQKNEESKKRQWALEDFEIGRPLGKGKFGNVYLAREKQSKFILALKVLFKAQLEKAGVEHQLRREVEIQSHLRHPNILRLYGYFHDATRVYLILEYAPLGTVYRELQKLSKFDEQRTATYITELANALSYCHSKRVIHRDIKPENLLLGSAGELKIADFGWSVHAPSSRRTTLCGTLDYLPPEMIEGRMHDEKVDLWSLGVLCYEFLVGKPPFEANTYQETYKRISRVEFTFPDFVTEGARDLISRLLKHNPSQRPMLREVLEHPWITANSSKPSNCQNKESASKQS
Procedure: Activity of human recombinant Aurora A (ThermoFisher, cat #PR5935A) was measured by quantification of adenosine diphosphate (ADP) using the ADP-Glo Kinase Assay Kit (Promega, cat #V9102). Test compounds were solubilized in dimethyl sulfoxide (DMSO) and dispensed into 384-well white polystyrene nonbinding plates (Greiner, cat #781094) using the Echo acoustic dispenser (Labcyte Inc.) in a 11-point 3-fold titration in duplicates. 5 μL of 5.0 nM Aurora A in assay buffer (50 mM HEPES, pH 7.5, 0.01% Brij-35, 0.01% BSA, 10 mM MgCl2, 1 mM EGTA, 1 mM DTT) was added to the plates. Test compounds and Aurora A were incubated for 15 minutes at room temperature (RT). Then 5 μL of a 40 μM adenosine triphosphate (ATP) (Promega, cat #V915B) and 9.3 μM Myelin Basic Protein (MBP) (SignalChem, cat #M42-51N) substrate solution in assay buffer was added and the reaction mixture was incubated for 2 hours at RT. The final concentration of Aurora A, ATP and MBP in the reactions were 2.5 nM, 20 μM and 4.7 μM, respectively. Reactions were stopped and the remaining ATP depleted by adding 10 μL of ADP-Glo reagent (Promega, cat #V912B) and incubating for 40 minutes at RT. The simultaneous conversion of the remaining ADP to ATP and measurement of the newly synthesized ATP was achieved by addition of 20 μL Kinase Detection reagent (Promega, cat #V914B), incubation for 30 min at RT, and luminescence detection using the EnVision plate reader (PerkinElmer). Reactions lacking Aurora A were used as 100% inhibition controls. Reactions containing DMSO alone were used as 0% inhibition controls. The IC50 values reported in Table 2 were determined using four parameter non-linear regression curve fit.

[2] = target: T3, human recombinant Aurora B (Homo sapiens, UniProt Q96GD4); experiment: Aurora B Kinase Biochemical Assay (ADP-Glo); details: selectivity ratio; Aurora B 10 nM, 114 μM ATP
T3 construct: purchased ThermoFisher PR9210B
T3 sequence (Q96GD4 whole entry): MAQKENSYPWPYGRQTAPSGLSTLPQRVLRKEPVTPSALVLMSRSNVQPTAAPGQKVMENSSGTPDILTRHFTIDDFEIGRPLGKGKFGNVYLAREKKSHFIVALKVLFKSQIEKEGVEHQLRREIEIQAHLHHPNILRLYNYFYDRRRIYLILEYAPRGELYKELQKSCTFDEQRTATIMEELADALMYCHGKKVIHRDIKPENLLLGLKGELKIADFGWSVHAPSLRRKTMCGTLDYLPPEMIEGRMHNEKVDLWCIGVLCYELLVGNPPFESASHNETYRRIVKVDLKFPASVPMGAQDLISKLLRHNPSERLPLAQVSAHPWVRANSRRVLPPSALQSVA
Procedure: Activity of human recombinant Aurora B (ThermoFisher, cat #PR9210B) was measured by quantification of adenosine diphosphate (ADP) using the ADP-Glo Kinase Assay Kit (Promega, cat #V9102). Test compounds were solubilized in dimethyl sulfoxide (DMSO) and dispensed into 384-well white polystyrene nonbinding plates (Greiner, cat #781094) using the Echo acoustic dispenser (Labcyte Inc.) in a 11-point 3-fold titration in duplicates. 5 μL of 20 nM Aurora B in assay buffer (50 mM HEPES, pH 7.5, 0.01% Brij-35, 0.01% BSA, 10 mM MgCl2, 1 mM EGTA, 1 mM DTT) was added to the plates. Test compounds and Aurora B were incubated for 15 minutes at room temperature (RT). Then 5 μL of a 228 μM adenosine triphosphate (ATP) (Promega, cat #V915B) and 9.3 μM Myelin Basic Protein (MBP) (SignalChem, cat #M42-51N) substrate solution in assay buffer was added and the reaction mixture was incubated for 2 hours at RT. The final concentration of Aurora b, ATP and MBP in the reactions were 10 nM, 114 μM and 4.7 μM, respectively. Reactions were stopped and the remaining ATP depleted by adding 10 μL of ADP-Glo reagent (Promega, cat #V912B) and incubating for 40 minutes at RT. The simultaneous conversion of the remaining ADP to ATP and measurement of the newly synthesized ATP was achieved by addition of 20 μL Kinase Detection reagent (Promega, cat #V9141B), incubation for 30 min at RT, and luminescence detection using the EnVision plate reader (PerkinElmer). Reactions lacking Aurora B were used as […]. Reactions containing DMSO alone were used as […]. The IC50 values reported in Table 2 were determined using four parameter non-linear regression curve fit.

CHP134 = CHP134 CellTiter-Glo (CTG) Assay; assay type: cell-based; details: Homo sapiens, CHP-134, 120 h; viable cells by CellTiter-Glo after 5 days
Procedure: […] cells (DSMZ-German Collection of Microorganisms and Cell Cultures, Braunschweig Germany) were cultured in RPMI 1640 supplemented with 10% fetal bovine serum, penicillin (100 U/ml), 1% L-Glutamine and streptomycin ([…]). Cells were seeded (200 cells/well) in 384-well plates for 16 hours. On day two, nine serial 1:3 compound dilutions were made in DMSO in a 96-well plate. The compounds were then further diluted into growth media using a BRAVO robot (Agilent, Santa Clara, CA). The diluted compounds were then added to quadruplicate wells in the 384-well cell plate and incubated at 37° C. and 5% CO2. After 5 days, relative numbers of viable cells were measured by luminescence using CellTiter-Glo® (Promega) according to the manufacturer's instructions and read on a SPARK Multimode Microplate Reader (Tecan, Mannedorf Switzerland). The IC50 calculations for the values reported in Table 2 were carried out using Prism 6.0 software (GraphPad, San Diego).

| Compound | IC50 (human recombinant PLK4) [nM] | [Aurora A IC50 (nM)]/[PLK4 IC50 (nM)] [1] | [Aurora B IC50 (nM)]/[PLK4 IC50 (nM)] [2] | IC50 (CHP134) [nM] |
| --- | --- | --- | --- | --- |
| COc1ccc2c(c1)[C@]1(C[C@H]1c1ccc3c(Nc4nc(-c5cncnc5)ncc4OC)n[nH]c3c1)C(=O)N2 [Example 25, (1R,2S)-5′-methoxy-2-{3-[(5-methoxy[2,5′-bipyrimidin]-4-yl)amino]-1H-indazol-6-yl}spiro[cyclopropane-1,3′-indol]-2′(1′H)-one] | 2.41 | 934.8277 | 608.5512 | – |
| COc1ccc2c(c1)[C@]1(C[C@H]1c1ccc3c(Nc4ccc(C5(N(C)C)COC5)cc4OC)n[nH]c3c1)C(=O)N2 [Example 9, (1R,2S)-2-(3-{4-[3-(dimethylamino)oxetan-3-yl]-2-methoxyanilino}-1H-indazol-6-yl)-5′-methoxyspiro[cyclopropane-1,3′-indol]-2′(1′H)-one] | 0.862 | – | – | 166 |
| COc1ccc2c(c1)[C@]1(C[C@H]1c1ccc3c(Nc4cc(-c5cn(C)nc5OC)ccc4OC)n[nH]c3c1)C(=O)N2 [Example 36, (1R,2S)-5′-methoxy-2-{3-[2-methoxy-5-(3-methoxy-1-methyl-1H-pyrazol-4-yl)anilino]-1H-indazol-6-yl}spiro[cyclopropane-1,3′-indol]-2′(1′H)-one] | 2.29 | 4350.9615 | 12202.7972 | – |
